Measurements: patent US9820967B2 (priority 2014, dated 2017)
“And” between values parts separate entries of the source, which are not always exact repeats. Equal entries are not always repeated. “Also recorded” adds a separate entry of the source. Where two headings read alike, the source gives them in different places.

How the values were obtained:
[1] = tested on: efflux pump (EPI functionality); test: EPI functionality assays of authentic standard; format: cell-based, Escherichia coli
Source text: Moreover, this “halogenome” appeared to be dominated by brominated metabolites, with only some metabolites (<10) that were additionally chlorinated. […] Relative concentrations of halogenated compounds from clade IV appeared different even within members of the same species, indicative of intraspecies chemical diversity and further subclustering among isolates of the same species (A757, A754, A746, and B149), a phenomenon previously described for P. luteoviolacea strains. […] The presence of 2,3,4-tribromopyrrole was also determined (retention time 20.1 min, major ion m/z 301.7639), which was present in A757, A754, and A746, but not in B149. […]
(§1) To truly be considered an efflux pump inhibitor (EPI), the compound must increase the level of accumulation and decrease the level of extrusion of efflux pump substrates. The fluorescent DNA-binding dye Hoechst 33342 (H33342) a known substrate for RND pumps, is easily detected in the cell, can freely permeate the outer membrane, and can act as a reporter, all allowing for quantification of transport across living cells. Efflux-competent cells extrude H33342 and accumulate dye at a relatively slow rate, resulting in low levels of background fluorescence. Conversely, efflux-defective cells (e.g., presence of EPI) accumulate intracellular levels of H33342 at a higher rate, resulting in fluorescence retention. […]

[2] = tested on: E. coli strains overexpressing efflux pumps (AG102, MG1655 ΔBC/pABM, MG1655 ΔBC/pXYM; AcrAB-TolC, MexAB-OprM, MexXY-OprM); format: cell-based, Escherichia coli
Source text: The checkerboard assay was used to determine whether 3,4-dibromopyrrole-2,5-dione potentiates the activity of two fluoroquinolones (ciprofloxacin (CIP) and levofloxacin (LEV)), an aminoglycoside (kanamycin (KAN)), a macrolide (erythromycin (ERY)), two β-lactams (oxacillin (OXA) and piperacillin (PIP)), tetracycline (TET), and chloramphenicol (CHL), known substrates for resistance nodulation cell division pump (RND) transporters, against test strains of multidrug resistant (MDR) E. coli. Interactions between 3,4-dibromopyrrole-2,5-dione and various antibiotics were classified based upon the fractional inhibitory concentration index (FICI), where a FIC of <0.5 is synergistic and indicative of the presence of an efflux pump inhibitor (EPI); 0.5-1 is indifferent; and >1 is antagonistic. […]
Bacterial susceptibility of extracts were tested in duplicate at 1 mg/mL and determined by rapid p-iodonitrotetrazolium chloride colorimetric assay in 96-well microtiter plates in a final volume of 200 μL as previously described (Kuete (2010), Antimicrob. Agents Chemother., 54, 1749-1752). […]
To assess the interaction between different classes of antibiotics and 3,4-dibromopyrrole-2,5-dione, standard checkerboard assays were performed in which the minimum inhibitory concentrations (MICs) of antibiotics were determined in the presence of different concentrations of 3,4-dibromopyrrole-2,5-dione. […]

[3] = target: wild-type E. coli AG100 expressing the AcrAB-TolC pump (Escherichia coli, UniProt P31224); format: cell-based
Source text: (§2) Upon entering the bacterial cell, H33342 becomes fluorescent once bound to the DNA minor groove.
as §1
(§3) For accumulation assays, in efflux-competent cells such as AG100, H33342 would be extruded resulting in low levels of background fluorescence, while the presence of a putative EPI would cause intracellular H33342 accumulation. […] Fluorescence values for wells containing media and compounds only were subtracted from those containing bacteria to control for any background fluorescence due to the presence of test compounds. […]

[4] = tested on: E. coli mutant AG100A (ΔacrAB), lacking the pump; format: cell-based, Escherichia coli; conditions: transporter deficient
Source text: as §2, §1, §3

[5] = target: H33342 efflux in E. coli AG100 (AcrAB-TolC) (Escherichia coli, UniProt P31224); test: Hoechst 33342 efflux assay, AG100; format: cell-based
Source text: To truly be considered an efflux pump inhibitor (EPI), the compound must increase the level of accumulation and decrease the level of extrusion of efflux pump substrates. The fluorescent DNA-binding dye Hoechst 33342 (H33342) a known substrate for RND pumps, is easily detected in the cell, can freely permeate the outer membrane, and can act as a reporter, all allowing for quantification of transport across living cells. Efflux-competent cells extrude H33342 and accumulate dye at a relatively slow rate, resulting in low levels of background fluorescence. Conversely, efflux-defective cells (e.g., presence of EPI) accumulate intracellular levels of H33342 at a higher rate, resulting in fluorescence retention. Wild-type E. coli K-12 strain, AG100, and AG100A, the ΔacrAB mutant, a generous gift from Dr. M. Viveiros (Universidad Nova de Lisboa, Portugal), were used in accumulation and efflux assays. […] All experiments were performed in duplicate. Heat-inactivated bacteria were used as a positive control to assess maximal dye accumulation.

fungi = conditions: Tsukamoto et al. (2001); cited from earlier work
[6] = tested on: murine lymphocytic leukemia cells; conditions: cited from earlier work

Sequence of wild-type E. coli AG100 expressing the AcrAB-TolC pump (P31224 whole entry): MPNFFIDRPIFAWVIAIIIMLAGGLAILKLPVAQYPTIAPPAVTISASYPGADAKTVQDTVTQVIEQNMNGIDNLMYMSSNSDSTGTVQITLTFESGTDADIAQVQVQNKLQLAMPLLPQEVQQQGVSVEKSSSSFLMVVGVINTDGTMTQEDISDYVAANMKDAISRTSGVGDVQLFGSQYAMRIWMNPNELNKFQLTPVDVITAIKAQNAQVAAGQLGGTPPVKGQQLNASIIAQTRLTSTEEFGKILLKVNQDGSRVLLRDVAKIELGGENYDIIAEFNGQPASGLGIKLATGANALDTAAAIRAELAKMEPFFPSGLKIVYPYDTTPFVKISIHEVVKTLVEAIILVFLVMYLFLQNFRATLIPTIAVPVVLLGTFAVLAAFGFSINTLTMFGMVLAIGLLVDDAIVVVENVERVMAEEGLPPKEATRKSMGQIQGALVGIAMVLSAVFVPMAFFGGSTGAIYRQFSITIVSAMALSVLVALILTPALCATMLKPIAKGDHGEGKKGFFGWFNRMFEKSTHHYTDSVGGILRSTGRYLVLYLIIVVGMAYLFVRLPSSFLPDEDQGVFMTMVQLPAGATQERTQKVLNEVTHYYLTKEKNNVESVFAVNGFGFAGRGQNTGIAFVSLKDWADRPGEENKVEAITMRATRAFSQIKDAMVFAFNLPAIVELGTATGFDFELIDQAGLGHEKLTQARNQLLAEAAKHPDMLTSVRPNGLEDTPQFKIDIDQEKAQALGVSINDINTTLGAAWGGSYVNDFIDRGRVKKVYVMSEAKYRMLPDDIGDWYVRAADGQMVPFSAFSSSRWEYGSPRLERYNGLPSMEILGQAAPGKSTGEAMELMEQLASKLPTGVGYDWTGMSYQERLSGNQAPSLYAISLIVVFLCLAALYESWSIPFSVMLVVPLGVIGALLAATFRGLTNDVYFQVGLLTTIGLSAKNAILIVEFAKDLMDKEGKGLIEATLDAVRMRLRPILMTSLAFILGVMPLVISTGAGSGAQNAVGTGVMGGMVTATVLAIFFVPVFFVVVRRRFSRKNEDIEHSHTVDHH
Sequence of wild-type E. coli AG100 expressing the AcrAB-TolC pump (P0AE06 25-397, further chain): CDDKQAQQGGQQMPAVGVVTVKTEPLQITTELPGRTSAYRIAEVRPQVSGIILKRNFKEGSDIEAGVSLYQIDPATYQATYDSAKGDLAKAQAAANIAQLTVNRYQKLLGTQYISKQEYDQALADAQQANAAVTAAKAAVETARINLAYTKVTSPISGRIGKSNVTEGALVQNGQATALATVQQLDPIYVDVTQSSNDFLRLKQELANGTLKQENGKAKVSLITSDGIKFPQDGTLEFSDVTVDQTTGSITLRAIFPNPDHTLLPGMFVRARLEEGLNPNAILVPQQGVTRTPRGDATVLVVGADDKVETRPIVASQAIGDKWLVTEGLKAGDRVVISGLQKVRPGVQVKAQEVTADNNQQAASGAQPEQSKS
Sequence of wild-type E. coli AG100 expressing the AcrAB-TolC pump (P02930 23-493, further chain): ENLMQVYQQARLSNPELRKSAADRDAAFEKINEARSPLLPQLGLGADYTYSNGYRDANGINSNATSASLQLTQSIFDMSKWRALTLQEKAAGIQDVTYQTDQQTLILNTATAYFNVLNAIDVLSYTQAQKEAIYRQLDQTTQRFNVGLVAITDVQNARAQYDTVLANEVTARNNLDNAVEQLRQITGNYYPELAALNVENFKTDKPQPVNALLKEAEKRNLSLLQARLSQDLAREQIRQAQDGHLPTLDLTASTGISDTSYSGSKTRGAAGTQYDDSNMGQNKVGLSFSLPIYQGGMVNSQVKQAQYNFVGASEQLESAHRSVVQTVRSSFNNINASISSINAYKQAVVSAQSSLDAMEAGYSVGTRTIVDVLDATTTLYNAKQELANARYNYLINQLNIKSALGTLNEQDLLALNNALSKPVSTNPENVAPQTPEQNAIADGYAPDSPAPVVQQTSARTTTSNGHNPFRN
Sequence of H33342 efflux in E. coli AG100 (AcrAB-TolC) (P31224 whole entry): as the sequence (P31224 whole entry) above
Sequence of H33342 efflux in E. coli AG100 (AcrAB-TolC) (P0AE06 25-397, further chain): as the sequence (P0AE06 25-397, further chain) above
Sequence of H33342 efflux in E. coli AG100 (AcrAB-TolC) (P02930 23-493, further chain): as the sequence (P02930 23-493, further chain) above

Row | SMILES | EPI activity of authentic standard [1] | interaction by fractional inhibitory concentration index (FICI) ([2]; all antibiotics tested with the exception of piperacillin) | antibacterial activity of compound alone, concentration ([2]; all three E. coli strains overexpressing efflux pumps) [µg/mL] | concentration equal to or more effective than PAβN (15.6 μg/mL) in causing H33342 accumulation [3] [µg/mL] | intracellular H33342 fluorescence (accumulation) [3] | effect on H33342 fluorescence (accumulation) [4] | effect on H33342 fluorescence (accumulation) ([4]; listed as 3,4-Dibromopyrrole-2,5-dione) | IC50 [5] | most dilute concentration with significant (p<0.05) H33342 efflux inhibition vs solvent controls [5] [µg/mL] | inhibition of H33342 efflux vs control wells ([5]; 0.06-64 μg/mL, glucose, 37° C.) | antifungal activity (fungi) | cytotoxicity [6]
1 | Brc1[nH]c(Br)c(Br)c1Br [2,3,4,5-tetrabromopyrrole] | not to be responsible for the EPI activity | – | – | – | – | – | – | – | – | – | – | –
2 | O=C1NC(=O)C(Br)=C1Br [3,4-dibromopyrrole-2,5-dione] | – | synergistic (a FIC of <0.5 is synergistic and indicative of the presence of an efflux pump inhibitor (EPI)) | > 100 | ≥ 1 | dose-dependent increase; also recorded: increased | no effect | not | 3.1 µM and 3 µM | 0.06 | near-complete inhibition | modest antifungal activity | cytotoxicity
